Test system: hepatocytes
Assay: Seq-Well scRNA-Seq of hepatocytes after APAP overdose (signature scores, DEG vs untreated)
Assay type: in vivo, mouse
[1] = hepatocyte cluster A96 (APAP, 96 h) vs all other clusters

## CC(=O)Nc1ccc(O)cc1 [APAP, acetaminophen]
Fraction of A96 (APAP, 96 h) hepatocytes expressing the gene
  pct.1 Zfp91: 0.693
Gene Atp2a2, time point A96
  pct.1 Atp2a2: 0.64
Gene Atp2a2, time point A96 vs untreated (UT)
  avg_logFC Atp2a2: 0.2537
Gene Csad, time point A96
  pct.1 Csad: 0.843
Gene Csad, time point A96 vs untreated (UT)
  avg_logFC Csad: 0.2906
Gene Eef1b2, time point A96
  pct.1 Eef1b2: 0.743
Gene Eef1b2, time point A96 vs untreated (UT)
  avg_logFC Eef1b2: −0.2686
Gene Etnppl, time point A96
  pct.1 Etnppl: 0.677
Gene Etnppl, time point A96 vs untreated (UT)
  avg_logFC Etnppl: 0.407
Gene Fos, time point A96
  pct.1 Fos: 0.619
Gene Fos, time point A96 vs untreated (UT)
  avg_logFC Fos: 0.3272
Gene Ftl1, time point A96
  pct.1 Ftl1: 0.363
Gene Ftl1, time point A96 vs untreated (UT)
  avg_logFC Ftl1: −0.2798
Gene Gm20594, time point A96
  pct.1 Gm20594: 0.262
Gene Gm20594, time point A96 vs untreated (UT)
  avg_logFC Gm20594: −0.2928
Gene Hes6, time point A96
  pct.1 Hes6: 0.33
Gene Hes6, time point A96 vs untreated (UT)
  avg_logFC Hes6: −0.2781
Gene Hsd3b3, time point A96
  pct.1 Hsd3b3: 0.499
Gene Hsd3b3, time point A96 vs untreated (UT)
  avg_logFC Hsd3b3: −0.313
Gene Hsd17b2, time point A96
  pct.1 Hsd17b2: 0.614
Gene Hsd17b2, time point A96 vs untreated (UT)
  avg_logFC Hsd17b2: −0.3005
Gene Hsd17b13, time point A96
  pct.1 Hsd17b13: 0.755
Gene Hsd17b13, time point A96 vs untreated (UT)
  avg_logFC Hsd17b13: 0.2678
Gene Ifi27, time point A96
  pct.1 Ifi27: 0.325
Gene Ifi27, time point A96 vs untreated (UT)
  avg_logFC Ifi27: −0.2572
Gene Ifitm3, time point A96
  pct.1 Ifitm3: 0.742
Gene Ifitm3, time point A96 vs untreated (UT)
  avg_logFC Ifitm3: −0.2797
Gene Krt8, time point A96
  pct.1 Krt8: 0.47
Gene Krt8, time point A96 vs untreated (UT)
  avg_logFC Krt8: −0.265
Gene Malat1, time point A96
  pct.1 Malat1: 0.702
Gene Malat1, time point A96 vs untreated (UT)
  avg_logFC Malat1: −0.4647
Gene Mup2, time point A96
  pct.1 Mup2: 0.256
Gene Mup2, time point A96 vs untreated (UT)
  avg_logFC Mup2: −0.5008
Gene Mup4, time point A96
  pct.1 Mup4: 0.824
Gene Mup4, time point A96 vs untreated (UT)
  avg_logFC Mup4: −0.6934
Gene Naa50, time point A96
  pct.1 Naa50: 0.517
Gene Naa50, time point A96 vs untreated (UT)
  avg_logFC Naa50: 0.2658
Gene Ndufb11, time point A96
  pct.1 Ndufb11: 0.669
Gene Ndufb11, time point A96 vs untreated (UT)
  avg_logFC Ndufb11: −0.2832
Gene Nme1, time point A96
  pct.1 Nme1: 0.561
Gene Nme1, time point A96 vs untreated (UT)
  avg_logFC Nme1: −0.2724
Gene Oat, time point A96
  pct.1 Oat: 0.653
Gene Oat, time point A96 vs untreated (UT)
  avg_logFC Oat: 0.3439
Gene Pnpla7, time point A96
  pct.1 Pnpla7: 0.455
Gene Pnpla7, time point A96 vs untreated (UT)
  avg_logFC Pnpla7: −0.3397
Gene Prdx4, time point A96
  pct.1 Prdx4: 0.517
Gene Prdx4, time point A96 vs untreated (UT)
  avg_logFC Prdx4: −0.314
Gene Psmb1, time point A96
  pct.1 Psmb1: 0.703
Gene Psmb1, time point A96 vs untreated (UT)
  avg_logFC Psmb1: −0.2659
Gene Psmb5, time point A96
  pct.1 Psmb5: 0.241
Gene Psmb5, time point A96 vs untreated (UT)
  avg_logFC Psmb5: −0.2633
Gene Rarres1, time point A96
  pct.1 Rarres1: 0.274
Gene Rarres1, time point A96 vs untreated (UT)
  avg_logFC Rarres1: −0.2874
Gene Rgn, time point A96
  pct.1 Rgn: 0.899
Gene Rgn, time point A96 vs untreated (UT)
  avg_logFC Rgn: 0.2614
Gene Rpl32, time point A96
  pct.1 Rpl32: 0.689
Gene Rpl32, time point A96 vs untreated (UT)
  avg_logFC Rpl32: −0.2631
Gene Rpl41, time point A96
  pct.1 Rpl41: 0.274
Gene Rpl41, time point A96 vs untreated (UT)
  avg_logFC Rpl41: −0.2575
Gene Rps8, time point A96
  pct.1 Rps8: 0.378
Gene Rps8, time point A96 vs untreated (UT)
  avg_logFC Rps8: −0.2585
Gene Rps15, time point A96
  pct.1 Rps15: 0.468
Gene Rps15, time point A96 vs untreated (UT)
  avg_logFC Rps15: −0.2545
Gene Selk, time point A96
  pct.1 Selk: 0.393
Gene Selk, time point A96 vs untreated (UT)
  avg_logFC Selk: −0.2647
Gene Serp1, time point A96
  pct.1 Serp1: 0.671
Gene Serp1, time point A96 vs untreated (UT)
  avg_logFC Serp1: −0.2992
Gene Ubb, time point A96
  pct.1 Ubb: 0.379
Gene Ubb, time point A96 vs untreated (UT)
  avg_logFC Ubb: −0.2685
Gene mmu-mir-6236, time point A96
  pct.1 mmu-mir-6236: 0.801
Gene mmu-mir-6236, time point A96 vs untreated (UT)
  avg_logFC mmu-mir-6236: −0.6272
Gene mt-Atp6, time point A96
  pct.1 mt-Atp6: 0.43
Gene mt-Atp6, time point A96 vs untreated (UT)
  avg_logFC mt-Atp6: −0.3955
[1]
  avg_logFC 8430408G22Rik: 0.2774
  avg_logFC Acot12: 0.2802
  avg_logFC Agpat6: 0.2753
  avg_logFC Aplp2: 0.2569
  avg_logFC Apoc2: 0.2872
  avg_logFC Apol7a: 0.3029
  avg_logFC Aqp9: 0.2901
  avg_logFC Arl4a: 0.2934
  avg_logFC Brap: 0.2572
  avg_logFC Cd36: 0.2782
  avg_logFC Cebpb: 0.2515
  avg_logFC Cede107: 0.2626
  avg_logFC Ces1e: 0.3109
  avg_logFC Ces1f: 0.2782
  avg_logFC Cisd1: 0.282
  avg_logFC Cpeb4: 0.2994
  avg_logFC Cpox: 0.2562
  avg_logFC Crls1: 0.255
  avg_logFC Cxcl12: 0.3005
  avg_logFC D4Wsu53e: 0.2925
  avg_logFC D17Wsu92e: 0.258
  avg_logFC Dcxr: 0.2522
  avg_logFC Dhdh: 0.2593
  avg_logFC Ech1: 0.2509
  avg_logFC Ehhadh: 0.2545
  avg_logFC Ephx1: 0.252
  avg_logFC Etfdh: 0.2768
  avg_logFC Etnppl: 0.411

Reference: US20230053540A1, “TREATMENT OF LIVER INJURY” (Massachusetts Institute of Technology, priority 2019, published 2023)
